Experimental data: US20250333419A1, “BICYCLIC COMPOUNDS AS INHIBITORS OF WRN” (Incyte Corporation, priority 2023, published 2025)

Legend:
WRN helicase [1] = biological target: T1, WRN helicase (Homo sapiens, UniProt Q14191); assay: ATPase assay on WRN helicase (ADP-Glo) with varied preincubation times; format: biochemical
T1 construct: His-tagged WRN construct used for biochemical characterization (aa S2-S1235); His; made in house; host or cells: Sf9 insect cells (baculovirus)
Experimental: An ATPase assay on WRN helicase was performed using ADP-Glo and IC50 values were determined by varying the compound of Example 1 preincubation times (FIG. 1). […] In FIG. 1, 0 hrs is represented by bottom dotted line; 1 hour is represented by the broken line with two bullets; 2 hrs is represented by solid line; and 4 hrs is represented by top dashed line.

WRN [2] = biological target: T2, WRN (Homo sapiens, UniProt Q14191); assay: WRN ATPase activity assay (ADP-Glo); format: biochemical; conditions: IC50, 1-hr pre-incubation with enzyme; geometric means of at least 2 independent replicates
T2 construct: A His-tagged construct of WRN (AA S2-S1235) was produced and used for the ATPase assay; His; made in house; host or cells: Sf9 insect cells (baculovirus)
T2 sequence (Q14191 2-1235): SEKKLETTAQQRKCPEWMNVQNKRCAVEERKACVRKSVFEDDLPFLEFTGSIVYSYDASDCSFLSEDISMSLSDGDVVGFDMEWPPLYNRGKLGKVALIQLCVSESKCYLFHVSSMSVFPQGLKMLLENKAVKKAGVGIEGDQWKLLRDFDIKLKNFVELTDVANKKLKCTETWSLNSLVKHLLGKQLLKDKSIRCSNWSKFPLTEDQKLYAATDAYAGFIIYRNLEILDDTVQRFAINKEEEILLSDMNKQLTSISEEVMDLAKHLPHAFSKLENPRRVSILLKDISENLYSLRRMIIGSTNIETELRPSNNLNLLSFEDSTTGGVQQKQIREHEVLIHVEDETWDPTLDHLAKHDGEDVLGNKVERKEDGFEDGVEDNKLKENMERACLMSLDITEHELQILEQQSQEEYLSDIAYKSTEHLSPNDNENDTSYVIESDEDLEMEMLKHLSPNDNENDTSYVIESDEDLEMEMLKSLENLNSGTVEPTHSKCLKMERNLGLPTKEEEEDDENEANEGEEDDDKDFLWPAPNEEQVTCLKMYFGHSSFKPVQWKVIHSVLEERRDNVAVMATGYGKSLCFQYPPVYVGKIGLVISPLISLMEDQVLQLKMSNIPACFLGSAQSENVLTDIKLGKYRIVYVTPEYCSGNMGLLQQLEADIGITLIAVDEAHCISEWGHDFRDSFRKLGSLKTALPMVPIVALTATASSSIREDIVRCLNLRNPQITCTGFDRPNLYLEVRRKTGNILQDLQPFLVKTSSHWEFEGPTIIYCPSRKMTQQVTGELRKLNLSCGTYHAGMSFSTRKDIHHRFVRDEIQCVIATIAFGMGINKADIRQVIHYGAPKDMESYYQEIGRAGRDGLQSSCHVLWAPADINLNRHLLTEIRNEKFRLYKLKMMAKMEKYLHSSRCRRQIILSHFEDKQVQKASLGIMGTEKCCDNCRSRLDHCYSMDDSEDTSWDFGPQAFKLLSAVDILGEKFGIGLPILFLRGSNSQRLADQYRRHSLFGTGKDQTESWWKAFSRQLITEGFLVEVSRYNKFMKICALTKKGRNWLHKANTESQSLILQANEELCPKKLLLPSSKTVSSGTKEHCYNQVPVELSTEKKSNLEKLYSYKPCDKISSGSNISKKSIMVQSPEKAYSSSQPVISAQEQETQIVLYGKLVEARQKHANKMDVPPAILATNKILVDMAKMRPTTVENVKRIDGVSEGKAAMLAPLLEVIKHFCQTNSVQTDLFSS
Experimental: Compounds of the Examples were tested for WRN ATPase activity. WRN ATPase activity catalyzes ATP hydrolysis to produce ADP and phosphate. DNA encoding the target protein, 6×HIS-TEV-WRN-517-945, was produced, cloned and transfected as detailed in Example D. The amount of ADP produced was measured using ADP-Glo™ Kinase Assay kit from Promega Corporation in a Greiner white regular volume 384 wells assay plate (Greiner #781075). Data was normalized to a standard curve generated using various ADP concentrations and the corresponding luminescent signal intensities at each concentration. The assay conditions were optimized for enzyme concentration (WRN), substrate concentrations (ATP & dsDNA), and the linearity of the ATPase reaction, in the following assay buffer: 50 mM Tris-HCl, pH-7.5, 2 mM MgCl2, 50 mM NaCl, 1 mM EGTA, 0.01% P-20, 0.05% BSA, and 2 mM DTT prepared with nuclease free water.
A serial dilution (1:3 scheme) of the compounds were prepared in neat DMSO, with 100 nL of the compounds dispensed in the 384 wells assay plate. An 1-hr pre-incubation of the compounds with enzyme was included. A His-tagged construct of WRN (AA S2-S1235) was produced and used for the ATPase assay. Maximum inhibition control wells were set up with the addition of only assay buffer, and no inhibition control wells were set up with neat DMSO without test compounds. The reaction was initiated by addition of 5 μL substrate mix (200 μM ultrapure ATP, and 50 nM dsDNA prepared in assay buffer) and incubated at 25° C. for 35 min. A forked dsDNA oligomer substrate was prepared by annealing equal amounts of oligo GPat-1 ([BHQ2][…]) and oligo GPat-2 ([…][TAM]) and was used as dsDNA substrate for WRN ATPase assay. A typical ATPase reaction consists of 25 nM forked dsDNA, 100 μM ATP, and 1 nM WRN prepared in assay buffer. The WRN ATPase reaction was stopped by the addition of 5 μL of ADP-Glo Reagent from ADP-Glo™ Kinase Assay kit and incubated for 40 min to deplete the unreacted ATP. Afterwards, 5 μL of Kinase Detection Reagent from the ADP-Glo™ Kinase Assay kit was added and incubated for 1 hr for the development of luminescence signal.
Luminesce signals were measured on BMG PHERAstar FSX using luminescence protocol. Data analysis was carried out using Genedata software following % of control normalization. Fitting parameters include dose response IC50, Hill slope (n), maximum inhibition (S∞), and minimum inhibition (S0). The reported IC50 values for compounds in this invention are the geometric means of at least 2 independent replicates.

WRN [3] = biological target: T2, WRN; assay: WRN Helicase activity assay (fluorescence DNA unwinding); format: biochemical; conditions: IC50, 1-hr pre-incubation with enzyme; geometric means of at least 2 independent replicates
Experimental: Compounds of the examples were tested for WRN helicase activity. DNA encoding the target protein, 6×HIS-TEV-WRN-517-945, was produced, cloned and transfected as detailed in Example D. To determine the inhibitory properties of the compounds, a 384 wells plate-based Helicase assay was set up to measure the extent of DNA unwinding (Helicase) activity of WRN. The WRN Helicase assay was designed to measure increase in fluorescence signal using a fluorescence based, donor-quencher paired forked dsDNA oligomer substrate (custom synthesis from Sigma-Aldrich) prepared by annealing equal amounts of oligo GPat-1 ([BHQ2][…]) and oligo GPat-2 ([…][TAM]). Continuous measurement of fluorescent signal was used to optimize the buffer conditions, concentration of enzyme (WRN), concentration of substrates (ATP & dsDNA), and the linearity of the Helicase reaction. All solutions were prepared in the following assay buffer: 50 mM Tris-HCl, pH-7.5, 2 mM MgCl2, 50 mM NaCl, 1 mM EGTA, 0.01% P-20, 0.05% BSA, and 2 mM DTT prepared with nuclease free water.
A serial dilution (1:3 scheme) of the compounds was prepared in neat DMSO and 100 nL of the compounds was dispensed in the Greiner black low volume (Greiner #784076) 384 wells assay plate. An 1-hr pre-incubation of the compounds with enzyme was included. A His-tagged construct of WRN (AA S2-S1235) was produced and used for the ATPase assay. Maximum inhibition control wells were set up with the addition of only assay buffer, and no inhibition control wells were set up with neat DMSO without test compounds. The reaction was initiated by addition of 5 μL substrate mix (200 μM ultrapure ATP, and 50 nM dsDNA prepared in assay buffer) and incubated at 25° C. for 35 min. A typical Helicase reaction consists of 25 nM forked dsDNA, 100 μM ATP, and 1 nM WRN prepared in assay buffer. The WRN Helicase reaction was quenched by the addition of 5 μL ‘STOP’ solution containing 100 mM EDTA (final EDTA concentration 33.33 mM) prepared in assay buffer. The plates were read on BMG PHERAstar FSX using 540/590 module to measure an increase of fluorescence. Data analysis was carried out using the Genedata software following % of control normalization. Fitting parameters include dose response IC50, Hill slope (n), maximum inhibition (S∞), and minimum inhibition (S0). The reported IC50 values for compounds in this invention are the geometric means of at least 2 independent replicates.

WRN Cys727Ala = biological target: T3, WRN Cys727Ala (Homo sapiens, UniProt Q14191, C727A); assay: ATPase assay on WRN Cys727Ala mutant, without preincubation; format: biochemical
T3 construct: Point mutations were made in the His-tagged WRN construct used for biochemical characterization (aa S2-S1235); His; made in house
T3 sequence (Q14191 2-1235 C727A): as the sequence (Q14191 2-1235) above, with C726A counted along it
Experimental: (§1) Point mutations were made in the His-tagged WRN construct used for biochemical characterization (aa S2-S1235). Cysteine 580 (Walker A motif), 727 (linker), 864 (Domain 2 Å) and 1041 (RQC domain) were each mutated to both Serine and Alanine using site directed mutagenesis, for a total of eight mutants. Purified proteins were assayed in both helicase and ATPase assays. Cys580 mutation to either Ser or Ala abolished all activity, consistent with Walker A motif cysteine function. Cys864 (D2) mutation to alanine and Cys1041 (RQC domain) had no significant impact on helicase or ATPase activity. Cys727 abolished helicase activity (Table 6), whether it was mutated to Ala or Ser. ATPase activity for Cys727 mutants was reduced but not abolished (Table 7). Table 6 is the panel of the nine variant WRN helicase proteins that were screen using a flourscence-based DNA unwinding assay with an increase in flourscence intensity indicating DNA unwinding. Table 7 is the panel of the nine variant WRN helicase proteins that were screened using ADP-Glo assay to measure DNA stimulated ATPase activity, with an increase in luminescence indicating ATP hydrolysis.
(§2) From FIG. 2, the top line represented WT. […] The mutant experiments were performed without preincubation.

WRN helicase [4] = assay: Intact mass spectrometry and peptide mapping of covalent modification; format: binding
Experimental: The intact WRN helicase has an observed mass of 67,573.1 Da (theoretical mass of 67,409.4 Da). The WRN helicase incubated with the compound of Example 1 has an observed mass of 68,164.5 (theoretical mass of 1:1 adduct 68,000 Da). The shift in the observed mass between intact WRN and WRN incubated with the compound of Example 1 is equivalent to the theorectical mass of the compound of Example 1 (592.2 Da). […] The mass spectrometry results, combined with the ATPase assay results established that covalently targeting Cys727 is and effective and tractable way to inhibit both the ATPase and helicase activities of WRN.

WRN Cys727Ser = biological target: T4, WRN Cys727Ser (Homo sapiens, UniProt Q14191, C727S); assay: ATPase assay on WRN Cys727Ser mutant, without preincubation; format: biochemical
T4 construct: Point mutations were made in the His-tagged WRN construct used for biochemical characterization (aa S2-S1235); His; made in house
T4 sequence (Q14191 2-1235 C727S): as the sequence (Q14191 2-1235) above, with C726S counted along it
Experimental: as §1, §2

T1 sequence (Q14191 2-1235): as the sequence (Q14191 2-1235) above

IC50 (WRN helicase [1]; preincubation 1 hour): 24 nM | IC50 (WRN helicase [1]; preincubation 2 hrs): 12 nM | IC50 (WRN helicase [1]; preincubation 4 hrs): 8 nM | IC50 (WRN helicase [1]; without preincubation): 449 nM | IC50 (WRN [2]): < 100 nM | IC50 (WRN [3]): < 100 nM | fold shift relative to WT (WRN Cys727Ala; Cys727Ala vs WT, without preincubation): 13 fold | IC50 (WRN Cys727Ala; Cys727Ala, without preincubation): 5820 nM | effect of Cys 727 mutation on potency (WRN Cys727Ala; FIG. 2, Cys727Ala and Cys727Ser): reduces the potency | adduct formation with WRN helicase (WRN helicase [4]; intact mass spectrometry): 1:1 adduct | IC50 (WRN Cys727Ser; Cys727Ser): 38500 nM | fold shift relative to WT (WRN Cys727Ser; Cys727Ser vs WT): 86 fold
Compound: C=CC(=O)Nc1ccccc1-c1c(CC)n(CC(=O)Nc2ccc(C(F)(F)F)cc2)c2nc(C3=CCOCC3)nn2c1=O [Example 1, N-(2-(2-(3,6-Dihydro-2H-pyran-4-yl)-5-ethyl-7-oxo-4-(2-oxo-2-((4-(trifluoromethyl)phenyl)amino)ethyl)-4,7-dihydro-[1,2,4]triazolo[1,5-a]pyrimidin-6-yl)phenyl)acrylamide]
time dependence of inhibition (WRN helicase [1]; FIG. 1): inhibits WRN helicase in a time dependent manner | residue modified (WRN helicase [4]; peptide mapping analysis): Cys727 is the only residue to be modified
